# Measurements: patent US7989438B2, “Therapeutic compounds” (Istituto di Ricerche di Biologia Molecolare P. Angeletti SpA, priority 2007, dated 2011)
# Tested on: HCV subgenomic replication
# Test: Cell based HCV replication assay (subgenomic replicon in Huh-7 cells, NS3 Cell-ELISA)
# Settings: Hepatitis C virus, Huh-7; Table 5, various macrocycles; activity ranges; read-out: IC50* (nM), Inhibition of HCV subgenomic replication
# In short: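 Huh-7 cells stably carrying the I377neo/NS3-3′/wt subgenomic replicon, seeded at 10^4 cells/well in DMEM/10% FCS and exposed to inhibitor for 96 h. NS3 expression was measured by Cell-ELISA (mAb 10E5/24, alkaline phosphatase, absorbance 405/620 nm), in duplicate. IC50 was fitted to the Hill equation, with background from parental Huh-7 cells.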
row,Compound,IC50
1,"COc1ccc2c(c1)OC[C@@H]1CCN(C)C3CCN(CC3)S(=O)(=O)NC(=O)c3ccc4c(C5CCCCC5)c-2n(c4c3)C1 [Example 523, (20R)-30-cyclohexyl-15-methoxy-23-methyl-18-oxa-2-thia-1,3,10,23-tetraazahexacyclo[22.2.2.1^5,9.1^8,11.1^10,20.0^12,17]hentriaconta-5(31),6,8,11(30),12,14,16-heptaen-4-one 2,2-dioxide]",< 25 nM

# Same assay, conditions: Table 3, various macrocycles; activity ranges; read-out: IC50* (nM), Inhibition of HCV subgenomic replication
row,Compound,IC50
1,"(5R)-31-cyclohexyl-4,24-dimethyl-7-oxa-23-thia-1,4,15,22,24-pentaazahexacyclo[23.2.2.1^5,15.1^14,17.1^16,20.0^8,13]dotriaconta-8,10,12,14(31),16(30),17,19-heptaen-21-one 23,23-dioxide [Example 305]",< 25 nM

# Same assay, conditions: Table 5, various macrocycles; activity ranges; read-out: IC50* (nM), Inhibition of HCV subgenomic replication
row,Compound,IC50
1,"CC(C)N1CCCC2COc3ccccc3-c3c(C4CCCCC4)c4ccc(cc4n3C2)C(=O)NS(=O)(=O)N(C)CC1 (stereo not shown) [Example 509, 14-cyclohexyl-21-isopropyl-18-methyl-7,8-dihydro-6H-7,11-(propanoiminoethanoiminothioiminomethano)indolo[1,2-e][1,5]benzoxazocin-15-one 17,17-dioxide]",< 25 nM
2,"COc1cccc2c1OCC1CCCN(C)CCN(C)S(=O)(=O)NC(=O)c3ccc4c(C5CCCCC5)c-2n(c4c3)C1 [Example 510, (7R)-14-cyclohexyl-4-methoxy-18,21-dimethyl-7,8-dihydro-6H-7,11-(propanoiminoethanoiminothioiminomethano)indolo[1,2-e][1,5]benzoxazocin-15-one 17,17-dioxide]",< 25 nM
3,"CN1CCCC2COc3c(OCCN4CCCC4)cccc3-c3c(C4CCCCC4)c4ccc(cc4n3C2)C(=O)NS(=O)(=O)N(C)CC1 [Example 511, (7R)-14-cyclohexyl-18,21-dimethyl-4-(2-pyrrolidin-1-ylethoxy)-7,8-dihydro-6H-7,11-(propanoiminoethanoiminothioiminomethano)indolo[1,2-e][1,5]benzoxazocin-15-one 17,17-dioxide]",< 25 nM
4,"CN1CCC(C)(C)CCN(C)S(=O)(=O)NC(=O)c2ccc3c(C4CCCCC4)c4n(c3c2)CC1COc1ccccc1-4 [Example 512, (7R)-14-cyclohexyl-18,21,21,24-tetramethyl-7,8-dihydro-6H-7,11-(epiminopentanoiminothioiminomethano)indolo[1,2-e][1,5]benzoxazocin-15-one 17,17-dioxide]",150 to 500 nM
5,"Cc1cccc2c1OC[C@@H]1CCCN(C)CCN(C)S(=O)(=O)NC(=O)c3ccc4c([C@H]5CCCC[C@@H]5F)c-2n(c4c3)C1 [Example 513, (7R)-14-[(1R,2S)-2-fluorocyclohexyl]-4,18,21-trimethyl-7,8-dihydro-6H-7,11-(propanoiminoethanoiminothioiminomethano)indolo[1,2-e][1,5]benzoxazocin-15-one 17,17-dioxide]",< 25 nM
6,"Cc1cccc2c1OCC1Cn3c-2c(C2CCCCC2)c2ccc(cc23)C(=O)NS(=O)(=O)N(C)CCN(CC(=O)N(C)C)CCN1C [Example 514, 2-[(7R)-14-cyclohexyl-4,18,24-trimethyl-17,17-dioxido-15-oxo-7,8-dihydro-6H-7,11-(epiminoethanoiminoethanoiminothioiminomethano)-indolo[1,2-e][1,5]benzoxazocin-21-yl]-N,N-dimethylacetamide]",< 25 nM
7,"Cc1cccc2c1OCC1Cn3c-2c(C2CCCCC2)c2ccc(cc23)C(=O)NS(=O)(=O)N(C)CCNCCN1C [Example 515, (7R)-14-cyclohexyl-4,18,24-trimethyl-7,8-dihydro-6H-7,11-(epiminoethanoiminoethanoiminothioiminomethano)-indolo[1,2-e][1,5]benzoxazocin-15-one 17,17-dioxide]",< 25 nM
8,"Cc1cccc2c1OCC1Cn3c-2c(C2CCCCC2)c2ccc(cc23)C(=O)NS(=O)(=O)N(C)CCN(C)CCN1C [Example 516, (7R)-14-cyclohexyl-4,18,21,24-tetramethyl-7,8-dihydro-6H-7,11-(epiminoethanoiminoethanoiminothioiminomethano)-indolo[1,2-e][1,5]benzoxazocin-15-one 17,17-dioxide]",< 25 nM
9,"Cc1cccc2c1OCC1Cn3c-2c(C2CCCCC2)c2ccc(cc23)C(=O)NS(=O)(=O)N(C)CCN(Cc2cnn(C)c2)CCN1C [Example 517, (7R)-14-cyclohexyl-4,18,24-trimethyl-21-[(1-methyl-1H-pyrazol-4-yl)methyl]-7,8-dihydro-6H-7,11-(epiminoethanoiminoethanoiminothioiminomethano)-indolo[1,2-e][1,5]benzoxazocin-15-one 17,17-dioxide]",< 25 nM
10,"CN1CCN(C)[C@H]2COc3ccccc3-c3c(C4CCCC4)c4ccc(cc4n3C2)C(=O)NS(=O)(=O)N(C)CC1 [Example 518, (7R)-14-cyclopentyl-18,21,24-trimethyl-7,8-dihydro-6H-7,11-(epiminoethanoiminoethanoiminothioiminomethano)-indolo[1,2-e][1,5]benzoxazocin-15-one 17,17-dioxide]",< 25 nM
11,"COc1cccc2c1OCC1Cn3c-2c(C2CCCCC2)c2ccc(cc23)C(=O)NS(=O)(=O)N(C)CCOCCN1C [Example 519, (7R)-14-cyclohexyl-4-methoxy-18,24-dimethyl-7,8-dihydro-6H-7,11-(epiminoethanooxyethanoiminothioiminomethano)indolo[1,2-e][1,5]benzoxazocin-15-one 17,17-dioxide]",25 to 150 nM
12,"Cc1cccc2c1OCC1CCCN(C)CCN(C)S(=O)(=O)NC(=O)c3ccc4c(C5CCCCC5)c-2n(c4c3)C1 [Example 520, (7R)-14-cyclohexyl-4,18,21-trimethyl-7,8-dihydro-6H-7,11-(propanoiminoethanoiminothioiminomethano)indolo[1,2-e][1,5]benzoxazocin-15-one 17,17-dioxide]",< 25 nM
13,"Cc1cccc2c1OCC1CCN(C)CCCN(C)S(=O)(=O)NC(=O)c3ccc4c(C5CCCCC5)c-2n(c4c3)C1 [Example 521, (7R)-14-cyclohexyl-4,18,22-trimethyl-7,8-dihydro-6H-7,11-(ethanoiminopropanoiminothioiminomethano)indolo[1,2-e][1,5]benzoxazocin-15-one 17,17-dioxide]",< 25 nM
14,"Cc1cccc2c1OCC1CCN(CCN(C)C)CCCN(C)S(=O)(=O)NC(=O)c3ccc4c(C5CCCCC5)c-2n(c4c3)C1 [Example 522, (7R)-14-cyclohexyl-22-[2-(dimethylamino)ethyl]-4,18-dimethyl-7,8-dihydro-6H-7,11-(ethanoiminopropanoiminothioiminomethano)indolo[1,2-e][1,5]benzoxazocin-15-one 17,17-dioxide]",< 25 nM
15,"COc1ccc2c(c1)OCC1CCN(C)CC(F)(F)CN(C)S(=O)(=O)NC(=O)c3ccc4c(C5CCCCC5)c-2n(c4c3)C1 [Example 524, (7R)-14-cyclohexyl-20,20-difluoro-3-methoxy-18,22-dimethyl-7,8-dihydro-6H-7,11-(ethanoiminopropanoiminothioiminomethano)indolo[1,2-e][1,5]benzoxazocin-15-one 17,17-dioxide]",150 to 500 nM
16,"COc1ccc2c(c1)OCC1CCN(C)CC(F)CN(C)S(=O)(=O)NC(=O)c3ccc4c(C5CCCCC5)c-2n(c4c3)C1 [Example 525, (7R)-14-cyclohexyl-20-fluoro-3-methoxy-18,22-dimethyl-7,8-dihydro-6H-7,11-(ethanoiminopropanoiminothioiminomethano)indolo[1,2-e][1,5]benzoxazocin-15-one 17,17-dioxide]",< 25 nM

# Same assay, conditions: Table A; activity ranges; Huh-7 replicon cells, 96 hours; read-out: IC50 (nM), Inhibition of HCV subgenomic replication
row,Compound,IC50
1,"(7R)-14-cyclohexyl-4-methoxy-18,22-dimethyl-7,8-dihydro-6H-7,11-(ethanoiminopropanoiminothioiminomethano)indolo[1,2-e][1,5]benzoxazocin-15-one 17,17-dioxide [Compound A33]",< 25 nM
